Test system: 6-OHDA mouse model of Parkinson's disease
Assay: Studies C and D: LC-MS/MS quantification of striatal dopamine and metabolites in the 6-OHDA mouse model
Format: in vivo, C57BL6 mice
Conditions: 28 days after the 6-OHDA lesion
Method: To determine the oral efficacy of the compound of formula (I) in the 6-OHDA mouse model of Parkinson's disease.
8-week-old C57BL6 male mice (obtained from ARC, Perth, Australia) were housed under a 12-h light cycle in a SPF climate-controlled facility with food and water provided ad libitum for two weeks prior to study initiation. For treatment with the compound of formula (I), mice were dosed via oral gavage. Ten (10) mice in each group were dosed at 3 or 1 mg/kg, starting the day before (24 hr prior) stereotaxic surgery, and then QD until sacrifice.
6-OHDA (Sigma) was prepared immediately prior to surgeries. A sterile saline (0.9%) solution containing ascorbic acid (0.2%) was used as the vehicle to dissolve 6-OHDA. […]
Mice were sacrificed 1 week after the amphetamine test (day 28) and striatal tissue was micro-dissected, weighed and snap-frozen at −80° C. […] Striatal dopamine (DA) and its metabolites (DOPAC and HVA) were quantified in their stable derivative 3o form in the presence of internal standard 3,4-dihydroxybenzylamine (DHBA) using highly sensitive liquid chromatography-tandem mass spectrometry (LC-MS/MS) as described previously (Park et al., Biol. Pharm. Bull., 2013, vol. 36, pp. 252-8). […] For quantitation, one transition per analyte was monitored and two transitions per analyte were monitored for qualitative purposes. […]

Question: With `CC(C)n1ccc(S(=O)(=O)NC(=O)Nc2c3c(cc4c2CCC4)CCC3)n1` [compound of formula (I)] as the compound, how does the “striatal dopamine (with metabolites DOPAC and HVA)” value (Study C, 3 mg/kg oral QD) read?
Answer: The value was “significantly protected against the loss of dopamine”.

Question: And the striatal dopamine (Study D, 3 mg/kg oral daily)?
Answer: Its striatal dopamine is “significantly protected against the loss of dopamine with improved efficacy compared to MCC950”.

— patent US20220401414A1, “TREATMENT AND PREVENTION OF A NEURODEGENERATIVE DISORDER” (Inflazome Limited, priority 2019, published 2022)
